Test results published in PMC11111404, “Discovery of potent small-molecule inhibitors of lipoprotein(a) formation” (Nature, 2024).
Where “and” joins values, the source holds several entries; their conditions need not be identical. Equal entries are not always repeated. Where two headings read alike, the source gives them in different places.

What was measured:
[1] = biological target: T1, apo(a) KIV8 (Homo sapiens, UniProt P08519); experiment: ITC binding to apo(a) KIV8
T1 construct: made in house
T1 sequence (P08519 1387-1465 limits assumed): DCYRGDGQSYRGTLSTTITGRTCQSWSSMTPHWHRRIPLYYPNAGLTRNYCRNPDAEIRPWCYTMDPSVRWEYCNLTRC
Description: The nucleotide sequence encoding the human LPA gene (NP_005568.2) was inserted into a mammalian expression vector containing a cytomegalovirus promoter. Protein expression was performed by transient transfection of human embryonic kidney 293 (HEK293) cells cultured in serum-free medium. The culture medium was collected five days after transfection and human apo(a) protein was purified using L-lysine affinity chromatography. Nucleotide sequences encoding various KIV domains of human apo(a) and human and rat plasminogen were inserted into a pET21a Escherichia coli expression vector. Bacterial BL21(DE3) was used as the expression host, and the induction of protein expression was performed in 2× TY medium with 1 mM isopropyl β-D-1-thiogalactopyranoside at 37 °C for 5 h. Cells were collected and stored at –80 °C for subsequent protein purification and refolding. […] All protein concentrations were determined by A280.
Experiments were performed on a MicroCal Auto-iTC200 titration calorimeter (Malvern Panalytical), with a cell volume of 200 μl and a 40-μl microsyringe. […] The microsyringe was loaded with a solution of the respective compounds, with the concentration measured by quantitative nuclear magnetic resonance, and was inserted into the calorimetric cell prefilled with the respective recombinant proteins of known concentration in ITC buffer. […]

[2] = biological target: T2, Lp(a) assembly (recombinant human 16K apo(a) and apoB) (Homo sapiens, UniProt P08519); experiment: In vitro Lp(a) assembly assay; type: biochemical
T2 construct: containing one KIV type 1, six KIV type 2 repeats, one each of KIV types 3–10 and one KV; expressed in transfected cells; host or cells: Conditioned medium of HEK293 (CRL-1573) stably expressing 16K apo(a), combined with conditioned medium of wild-type HepG2 (HB-8065) for endogenous apoB
T2 sequence (P08519 20-2040): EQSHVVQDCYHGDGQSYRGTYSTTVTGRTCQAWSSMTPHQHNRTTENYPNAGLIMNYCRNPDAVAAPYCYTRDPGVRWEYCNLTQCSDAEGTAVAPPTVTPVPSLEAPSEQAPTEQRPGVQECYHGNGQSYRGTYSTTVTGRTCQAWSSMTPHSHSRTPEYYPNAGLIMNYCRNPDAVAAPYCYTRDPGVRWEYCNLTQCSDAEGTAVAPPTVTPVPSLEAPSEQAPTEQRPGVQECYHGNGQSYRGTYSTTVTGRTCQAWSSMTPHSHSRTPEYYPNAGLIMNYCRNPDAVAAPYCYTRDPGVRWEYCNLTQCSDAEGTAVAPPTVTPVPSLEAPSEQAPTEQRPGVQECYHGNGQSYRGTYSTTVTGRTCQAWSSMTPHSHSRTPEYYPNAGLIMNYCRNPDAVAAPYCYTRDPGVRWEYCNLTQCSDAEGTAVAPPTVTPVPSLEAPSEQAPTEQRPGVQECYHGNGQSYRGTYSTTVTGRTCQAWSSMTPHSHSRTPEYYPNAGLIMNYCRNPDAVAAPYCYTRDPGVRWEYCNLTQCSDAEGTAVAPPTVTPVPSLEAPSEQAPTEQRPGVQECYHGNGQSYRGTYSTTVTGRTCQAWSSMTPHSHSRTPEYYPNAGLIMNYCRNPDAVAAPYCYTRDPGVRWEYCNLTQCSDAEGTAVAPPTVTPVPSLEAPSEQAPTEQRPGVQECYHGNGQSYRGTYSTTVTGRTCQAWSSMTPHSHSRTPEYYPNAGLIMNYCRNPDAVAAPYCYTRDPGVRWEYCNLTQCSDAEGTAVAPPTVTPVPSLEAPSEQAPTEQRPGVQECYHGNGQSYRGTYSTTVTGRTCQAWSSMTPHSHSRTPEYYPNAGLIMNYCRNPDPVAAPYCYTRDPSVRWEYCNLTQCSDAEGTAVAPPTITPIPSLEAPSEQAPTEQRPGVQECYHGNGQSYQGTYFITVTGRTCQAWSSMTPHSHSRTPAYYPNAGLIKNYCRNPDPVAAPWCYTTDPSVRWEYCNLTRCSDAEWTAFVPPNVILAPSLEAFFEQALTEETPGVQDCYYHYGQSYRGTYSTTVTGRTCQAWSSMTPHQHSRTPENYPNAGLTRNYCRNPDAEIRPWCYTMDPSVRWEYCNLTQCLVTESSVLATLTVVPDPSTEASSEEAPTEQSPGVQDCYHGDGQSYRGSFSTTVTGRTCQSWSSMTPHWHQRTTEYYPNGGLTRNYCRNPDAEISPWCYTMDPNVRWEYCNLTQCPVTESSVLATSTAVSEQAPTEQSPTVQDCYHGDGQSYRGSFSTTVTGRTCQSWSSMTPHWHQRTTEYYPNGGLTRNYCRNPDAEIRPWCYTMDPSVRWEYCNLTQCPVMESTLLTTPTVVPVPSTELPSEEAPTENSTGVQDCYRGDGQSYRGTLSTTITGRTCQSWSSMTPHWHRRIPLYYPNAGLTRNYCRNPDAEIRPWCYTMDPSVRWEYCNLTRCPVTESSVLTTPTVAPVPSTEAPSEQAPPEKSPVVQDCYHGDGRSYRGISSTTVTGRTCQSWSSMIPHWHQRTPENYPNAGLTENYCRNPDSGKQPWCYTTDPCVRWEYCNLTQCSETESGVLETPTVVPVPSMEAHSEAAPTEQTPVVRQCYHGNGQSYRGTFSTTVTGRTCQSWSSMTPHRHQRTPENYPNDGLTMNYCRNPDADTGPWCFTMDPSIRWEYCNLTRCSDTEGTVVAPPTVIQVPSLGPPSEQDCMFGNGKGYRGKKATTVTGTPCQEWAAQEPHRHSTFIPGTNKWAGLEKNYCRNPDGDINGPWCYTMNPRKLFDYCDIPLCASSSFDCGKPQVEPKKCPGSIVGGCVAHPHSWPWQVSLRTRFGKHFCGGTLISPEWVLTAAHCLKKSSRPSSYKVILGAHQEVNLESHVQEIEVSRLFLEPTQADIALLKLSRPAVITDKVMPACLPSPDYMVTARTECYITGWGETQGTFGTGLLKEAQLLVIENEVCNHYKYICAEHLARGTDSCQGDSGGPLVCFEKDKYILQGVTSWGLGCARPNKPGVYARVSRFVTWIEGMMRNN
Description: HepG2 cells (HB-8065, ATCC) were cultured in Dulbecco’s modified Eagle’s medium, supplemented with 10% fetal bovine serum, 20 mM 4-(2-hydroxyethyl)-1-piperazineethanesulfonic acid (HEPES) and 100 U ml^−1 penicillin–streptomycin. apoB-conditioned media were collected after 24 h of culture at 37 °C and 5% CO2 from confluent wild-type HepG2 cells that endogenously express and secrete apoB. Apo(a)-conditioned media were collected after 24 h of culture at 37 °C and 5% CO2 from HEK293 cells (CRL-1573, ATCC) that stably express and secrete recombinant human 16K apo(a) protein containing one KIV type 1, six KIV type 2 repeats, one each of KIV types 3–10 and one KV.
The assembly assay was conducted in 96-well polypropylene plates by combining HepG2 and apo(a)-HEK293-conditioned media in the presence of a range of compound concentrations. After a two-hour incubation period at 37 °C, the reaction was stopped by the addition of 6-aminocaproic acid. Lp(a) was detected using a sandwich enzyme-linked immunosorbent assay (ELISA), with a polyclonal goat anti-apo(a) capture antibody (Abcam ab31675) and a biotin-conjugated, polyclonal goat anti-apoB detection antibody (Abcam ab20898). In brief, ELISA plates were coated with 100 μl of the capture antibody at a 1:12,500 dilution (around 4 μg ml^−1) into HEPES-buffered saline (HBS), incubated overnight at 4 °C, washed and blocked by the addition of 200 μl of 1% casein. After removal of the blocking buffer, 20 μl of each of the assembly reactions or of a dilution series of purified human Lp(a) (Athens Research, 12-16-121601), diluted 1:5 into HBS supplemented with 0.5% casein, were added to the ELISA plate. […] Absorbance at 450 nm was measured on an Envision plate reader.
The concentration of Lp(a) formed in each test condition was determined on the basis of the standard curve constructed from the purified human Lp(a) used as a reference standard, and was normalized to high (buffer) and low (no apoB) controls. […] Data were analysed in GraphPad Prism v.9.5.1.

[3] = Pharmacokinetics in monkey plasma after oral dosing; type: in vivo; conditions: for AUC(0-t): day 15, read-out: AUC(0-96 hr)
Description: Plasma samples were collected from all monkeys before dosing and at four-hour time points only on days 1, 3, 5, 9 and 14. A full PK profile was obtained in the first three monkeys of each dose group on day 15, collecting samples before dosing and 1, 2, 4, 8, 12, 24, 48 and 96 h after dosing. Concentrations of compounds were evaluated in plasma samples using a non-GLP LC–MS/MS assay. The non-compartmental plasma PK parameters were calculated using Watson (v.7.5).

[4] = biological target: T3, plasminogen (Rattus norvegicus, UniProt Q01177); experiment: Rat plasma plasminogen concentration (ELISA) after oral dosing; type: in vivo; conditions: for PLG mass, Plasminogen (mean of replicates) / PLG mass, Replicate 1 / PLG mass, Replicate 2: rat plasma, individual animal
T3 construct: Plasma samples were collected via the abdominal aorta; from tissue; host or cells: Citrated plasma of orally dosed male Sprague Dawley rats
T3 sequence (Q01177 20-812 limits assumed): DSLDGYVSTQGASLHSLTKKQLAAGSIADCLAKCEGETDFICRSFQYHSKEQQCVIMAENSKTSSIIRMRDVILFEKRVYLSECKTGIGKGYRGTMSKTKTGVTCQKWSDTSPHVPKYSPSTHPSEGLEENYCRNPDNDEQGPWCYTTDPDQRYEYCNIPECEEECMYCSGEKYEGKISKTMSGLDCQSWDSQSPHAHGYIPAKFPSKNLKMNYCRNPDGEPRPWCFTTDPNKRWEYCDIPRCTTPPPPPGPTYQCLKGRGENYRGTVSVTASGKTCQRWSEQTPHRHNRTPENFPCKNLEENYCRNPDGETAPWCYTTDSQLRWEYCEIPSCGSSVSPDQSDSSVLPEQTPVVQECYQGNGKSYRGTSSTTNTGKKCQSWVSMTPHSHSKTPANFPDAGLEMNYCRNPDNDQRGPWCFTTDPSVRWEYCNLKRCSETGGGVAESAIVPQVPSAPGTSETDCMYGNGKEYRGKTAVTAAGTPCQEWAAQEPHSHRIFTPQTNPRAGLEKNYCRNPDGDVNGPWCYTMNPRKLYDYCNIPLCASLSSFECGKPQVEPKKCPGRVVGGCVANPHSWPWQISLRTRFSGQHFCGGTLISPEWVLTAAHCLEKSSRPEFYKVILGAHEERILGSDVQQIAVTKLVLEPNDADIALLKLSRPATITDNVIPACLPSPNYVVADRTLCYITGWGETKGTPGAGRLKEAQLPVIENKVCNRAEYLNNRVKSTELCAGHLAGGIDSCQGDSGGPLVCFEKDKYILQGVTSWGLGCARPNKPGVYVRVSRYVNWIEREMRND
Description: Male Sprague Dawley rats (Charles River, average body weight 310 g, aged eight to nine weeks old) were housed in cages with a standard light cycle (12-h light, 12-h dark), at room temperature (22 ± 4 °C), with a relative humidity of 30–70%. Rats were identified by numbers on the cage cards. After arrival, rats were fed on a normal diet (Harlan Teklad diet 2014) and randomized to treatment groups (n = 5 per group) by baseline plasma plasminogen concentration and activity using a BRAT. LSN3441732 and LY3473329 were administered QD orally at three dose levels (3.7, 12.3 and 37 mg kg^−1; 3.2, 10.5 and 31.6 mg kg^−1 per dose, respectively) or vehicle (10 ml kg^−1, 1% HEC, 0.25% Tween-80, Antifoam) for four days. Terminal blood was drawn under general anaesthesia 24 h after the day-4 oral dose. Plasma samples were collected via the abdominal aorta into a premeasured anticoagulant BD Vacutainer used for blood collection (2.7 ml, buffered sodium citrate). The liver was flash frozen in liquid nitrogen. To measure plasminogen activity, 100 µl plasma per well was added to a 96-well plate (Corning) and the following were added to the indicated concentrations: 7.5 mM CaCl2 and 117 mM NaCl. Wells were mixed and warmed to 37 °C. Urokinase (Millipore) was added at 125 U per well and the plate was incubated at 37 °C for 4 min. The plasminogen substrate Chromogenix S-2251 (DiaPharma) was added to a concentration of 3.3 mM. The mixture was added and the plate was sealed and placed in a prewarmed plate reader, shaken, and the absorbance read every 30 s for 2 h. The maximum slope for each curve was determined and the percentage inhibition was calculated relative to untreated controls. Plasminogen protein was measured using ELISA kits for rat (Abcam ab157740) according to the manufacturer’s instructions. Plasminogen activity (percentage) and mass (µg ml^−1) in rat were analysed by ANOVA in JMP 16.1.0. The percentage reduction of plasminogen activity and mass for each treated group was compared with vehicle by Dunnett’s method.

[5] = test system: plasmin activity; design: method as in PMID 37638695; conditions: human phase 1 study; cited from earlier work
[6] = 3473329 dose 3.2 mpk, 3.2 mg/kg
[7] = 3473329 dose 10.5 mpk, 10.5 mg/kg
[8] = 3473329 dose 31.6 mpk, 31.6 mg/kg
[9] = 3441732 dose 3.7 mpk, 3.7 mg/kg
[10] = 3441732 dose 12.3 mpk, 12.3 mg/kg

O=C(O)[C@@H](Cc1cccc(CN(Cc2cccc(C[C@H](C(=O)O)[C@H]3CCNC3)c2)Cc2cccc(C[C@H](C(=O)O)[C@H]3CCNC3)c2)c1)[C@H]1CCNC1 [LY3473329]
Kd [1]: 22 nM
IC50 [2]: 0.09 nM
Tmax ([3]; Chinese cynomolgus, oral 1 mg/kg, day 15): 7 ± 5.7 h
Cmax ([3]; Chinese cynomolgus, oral 10 mg/kg, day 15): 3.47 µM
AUC(0-t) ([3]; Chinese cynomolgus, oral 10 mg/kg): 207 µM·h
Tmax ([3]; Chinese cynomolgus, oral 100 mg/kg, day 15): 1 ± 1 h
AUC(0-t) ([3]; cynomolgus, oral 100 mg/kg): 294 µM·h
PLG mass, Plasminogen (mean of replicates) [4, 6]: 281.7 µg/mL and 301.7 µg/mL and 249.5 µg/mL and 274.1 µg/mL and 246.9 µg/mL
PLG mass, Replicate 1 [4, 6]: 275.600 µg/mL and 301.472 µg/mL and 251.100 µg/mL and 270.384 µg/mL and 245.604 µg/mL
PLG mass, Replicate 2 [4, 6]: 287.828 µg/mL and 301.932 µg/mL and 247.992 µg/mL and 277.820 µg/mL and 248.160 µg/mL
PLG mass, Plasminogen (mean of replicates) [4, 7]: 239.9 µg/mL and 236.1 µg/mL and 242.7 µg/mL and 225.5 µg/mL and 223.8 µg/mL
PLG mass, Replicate 1 [4, 7]: 241.392 µg/mL and 228.556 µg/mL and 235.352 µg/mL and 212.812 µg/mL and 213.952 µg/mL
PLG mass, Replicate 2 [4, 7]: 238.436 µg/mL and 243.736 µg/mL and 249.956 µg/mL and 238.240 µg/mL and 233.564 µg/mL
PLG mass, Plasminogen (mean of replicates) [4, 8]: 199.2 µg/mL and 187.7 µg/mL and 187.4 µg/mL and 229.5 µg/mL and 225.0 µg/mL
PLG mass, Replicate 1 [4, 8]: 197.560 µg/mL and 179.928 µg/mL and 183.640 µg/mL and 229.888 µg/mL and 216.732 µg/mL
PLG mass, Replicate 2 [4, 8]: 200.844 µg/mL and 195.380 µg/mL and 191.112 µg/mL and 229.028 µg/mL and 233.256 µg/mL
plasmin activity at oral doses lowering Lp(a) [5]: without affecting plasmin activity

Cl.Cl.O=C(Nc1cccc(C[C@H](C(=O)O)[C@H]2CCNC2)c1)Nc1cccc(C[C@H](C(=O)O)[C@H]2CCNC2)c1 [LSN3441732]
Kd [1]: < 10 nM
IC50 [2]: 0.18 nM
PLG mass, Plasminogen (mean of replicates) [4, 9]: 199.7 µg/mL and 188.1 µg/mL and 194.6 µg/mL and 164.2 µg/mL and 177.8 µg/mL
PLG mass, Replicate 1 [4, 9]: 193.976 µg/mL and 187.308 µg/mL and 191.488 µg/mL and 158.900 µg/mL and 169.900 µg/mL
PLG mass, Replicate 2 [4, 9]: 205.500 µg/mL and 188.992 µg/mL and 197.772 µg/mL and 169.500 µg/mL and 185.664 µg/mL
PLG mass, Plasminogen (mean of replicates) [4, 10]: 192.7 µg/mL and 158.1 µg/mL and 151.7 µg/mL and 134.6 µg/mL and 119.3 µg/mL
PLG mass, Replicate 1 [4, 10]: 187.144 µg/mL and 151.612 µg/mL and 145.376 µg/mL and 127.920 µg/mL and 115.472 µg/mL
PLG mass, Replicate 2 [4, 10]: 198.344 µg/mL and 164.496 µg/mL and 157.928 µg/mL and 141.248 µg/mL and 123.088 µg/mL
PLG mass, Plasminogen (mean of replicates) ([4]; 3441732 dose 37 mpk, 37 mg/kg): 113.7 µg/mL and 124.7 µg/mL and 116.9 µg/mL and 125.1 µg/mL and 127.8 µg/mL
PLG mass, Replicate 1 ([4]; 3441732 dose 37 mpk, 37 mg/kg): 111.012 µg/mL and 118.768 µg/mL and 109.952 µg/mL and 121.004 µg/mL and 125.228 µg/mL
PLG mass, Replicate 2 ([4]; 3441732 dose 37 mpk, 37 mg/kg): 116.416 µg/mL and 130.704 µg/mL and 123.756 µg/mL and 129.140 µg/mL and 130.432 µg/mL
plasma levels of plasminogen protein ([4]; rats, oral dosing): decreased in a dose-dependent manner
